Laboratory results from patent US10072017B2, “Compounds and methods for the treatment of cystic fibrosis” (Flatley Discovery Lab, LLC, priority 2015, dated 2018).

Molecular target: T1, CFTR (Homo sapiens, UniProt P13569, DEL508-508)
T1 construct: Primary CF airway epithelial cells were obtained from the UNC Cystic Fibrosis Tissue Procurement and Cell Culture Core; host or cells: primary CF airway epithelial cells
Test: Equivalent current assay in Primary CF airway epithelial cells (NAUC)
Format: cell-based
Details: 24 h, normalized to VX809 (3 μM) positive control; for Nauc @ 3 μM: 3 μM test compound; for Nauc @ 10 μM: 10 μM test compound
How it was run: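 NAUC is the area under the curve from forskolin (10 μM) plus VX770 (1 μM) addition to CFTR-172 (20 μM) block, after benzamil (5 μM). It is corrected for vehicle and scaled to 3 μM VX809 as 1.0 and DMSO as 0.0. Cells were exposed for 24 h to compounds with VX809; medians of ≥4 replicates were fitted sigmoidally.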

T1 sequence (P13569 with tags, fused parts or gaps DEL508-508): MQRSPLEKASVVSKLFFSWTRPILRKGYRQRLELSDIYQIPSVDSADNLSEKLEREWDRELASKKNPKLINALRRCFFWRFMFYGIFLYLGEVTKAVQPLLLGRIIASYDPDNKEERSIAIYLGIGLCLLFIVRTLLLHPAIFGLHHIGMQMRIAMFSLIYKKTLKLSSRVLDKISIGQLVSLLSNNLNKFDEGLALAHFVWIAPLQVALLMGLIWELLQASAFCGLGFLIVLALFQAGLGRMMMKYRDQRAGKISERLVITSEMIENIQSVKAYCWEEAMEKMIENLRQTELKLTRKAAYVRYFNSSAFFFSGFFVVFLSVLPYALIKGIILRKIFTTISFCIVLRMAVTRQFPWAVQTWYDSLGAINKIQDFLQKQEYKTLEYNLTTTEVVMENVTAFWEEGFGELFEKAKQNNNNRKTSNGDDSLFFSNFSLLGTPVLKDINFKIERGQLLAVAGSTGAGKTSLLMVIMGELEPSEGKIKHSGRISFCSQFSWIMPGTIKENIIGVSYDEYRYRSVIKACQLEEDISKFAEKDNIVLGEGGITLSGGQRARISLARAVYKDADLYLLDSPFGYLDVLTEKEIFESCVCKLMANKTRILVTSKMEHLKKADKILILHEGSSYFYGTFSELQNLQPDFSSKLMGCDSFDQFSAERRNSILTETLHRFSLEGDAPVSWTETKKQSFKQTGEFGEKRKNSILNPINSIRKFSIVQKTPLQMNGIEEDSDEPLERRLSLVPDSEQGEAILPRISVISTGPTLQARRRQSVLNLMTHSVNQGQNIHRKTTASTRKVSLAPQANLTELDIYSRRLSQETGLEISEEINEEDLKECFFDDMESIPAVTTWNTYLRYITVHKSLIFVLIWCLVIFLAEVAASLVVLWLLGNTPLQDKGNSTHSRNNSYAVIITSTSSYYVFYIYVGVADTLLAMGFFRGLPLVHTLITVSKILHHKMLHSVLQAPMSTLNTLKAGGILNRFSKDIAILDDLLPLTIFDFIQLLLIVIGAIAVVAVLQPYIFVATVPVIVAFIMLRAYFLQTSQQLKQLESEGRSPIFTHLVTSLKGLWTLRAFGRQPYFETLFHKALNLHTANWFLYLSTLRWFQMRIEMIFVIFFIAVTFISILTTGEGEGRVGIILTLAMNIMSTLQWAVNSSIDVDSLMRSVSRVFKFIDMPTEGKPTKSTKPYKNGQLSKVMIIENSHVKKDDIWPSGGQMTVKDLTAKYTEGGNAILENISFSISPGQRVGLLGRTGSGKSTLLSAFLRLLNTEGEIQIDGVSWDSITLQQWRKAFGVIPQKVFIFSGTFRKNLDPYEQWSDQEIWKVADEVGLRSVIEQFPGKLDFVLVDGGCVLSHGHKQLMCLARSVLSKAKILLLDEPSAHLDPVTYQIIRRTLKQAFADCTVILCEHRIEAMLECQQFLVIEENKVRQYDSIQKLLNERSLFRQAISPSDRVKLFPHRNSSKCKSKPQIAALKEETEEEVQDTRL

Row | Compound | Nauc @ 3 μM | Nauc @ 10 μM
1 | CC(=O)N[C@H]1CC2C3C(=O)N(c4cc(Cl)cc(Cl)c4)C(=O)C3C3(C(=O)Nc4c(Cl)cc(Cl)cc43)N2C1 (stereo partly shown) [Example 135] | +++ (NAUC “+++” refers to an observed NAUC >170% of positive control) | + (NAUC “+” refers to an observed NAUC <140% of positive control)
2 | O=C1C2C3CCCN3C3(C(=O)Nc4c(Cl)cc(Cl)cc43)C2C(=O)N1c1cc(F)cc(Cl)c1 (stereo not shown) [Example 28] | ++ (NAUC “++” refers to an observed NAUC 170-140% of positive control) | +++ (NAUC “+++” refers to an observed NAUC >170% of positive control)
3 | COc1cc(Cl)cc(N2C(=O)C3C4C[C@](C)(F)CN4C4(C(=O)Nc5c(Cl)cc(Cl)cc54)C3C2=O)c1 (stereo partly shown) [Example 205] | ++ (NAUC “++” refers to an observed NAUC 170-140% of positive control) | +++ (NAUC “+++” refers to an observed NAUC >170% of positive control)
4 | O=C1C2C(Cc3ccccc3F)NC3(C(=O)Nc4c(Cl)cc(Cl)cc43)C2C(=O)N1c1cc(Cl)cc(Cl)c1 (stereo not shown) [Example 181] | +++ (NAUC “+++” refers to an observed NAUC >170% of positive control) | +++ (NAUC “+++” refers to an observed NAUC >170% of positive control)
5 | CC1(C)CC2C3C(=O)N(c4cc(Cl)cc(Cl)n4)C(=O)C3C3(C(=O)Nc4c(Cl)cc(Cl)cc43)N2C1 (stereo not shown) [Example 175] | +++ (NAUC “+++” refers to an observed NAUC >170% of positive control) | +++ (NAUC “+++” refers to an observed NAUC >170% of positive control)
6 | O=C1C2C3CC(C(F)F)CN3C3(C(=O)Nc4c(Cl)cc(Cl)cc43)C2C(=O)N1c1cccc(C(F)(F)F)c1 (stereo not shown) [Example 134] | + (NAUC “+” refers to an observed NAUC <140% of positive control) | ++ (NAUC “++” refers to an observed NAUC 170-140% of positive control)
7 | CC(C)C1NC2(C(=O)Nc3c(Cl)cc(Cl)cc32)C2C(=O)N(c3cc(Cl)cc(Cl)c3)C(=O)C12 (single isomer, unassigned) [Example 242] | +++ (NAUC “+++” refers to an observed NAUC >170% of positive control) | +++ (NAUC “+++” refers to an observed NAUC >170% of positive control)
8 | O=C1C2C(Cc3cccc(Cl)c3)NC3(C(=O)Nc4c(Cl)cc(Cl)cc43)C2C(=O)N1c1cc(Cl)cc(Cl)c1 (stereo not shown) [Example 187] | +++ (NAUC “+++” refers to an observed NAUC >170% of positive control) | ++ (NAUC “++” refers to an observed NAUC 170-140% of positive control)
9 | O=C1C2C3CCCN3C3(C(=O)Nc4c(Cl)cc(Cl)cc43)C2C(=O)N1c1cc(Cl)c(OC(F)F)c(Cl)c1 (single isomer, unassigned) [Example 250] | +++ (NAUC “+++” refers to an observed NAUC >170% of positive control) | +++ (NAUC “+++” refers to an observed NAUC >170% of positive control)
10 | O=C1C2C3CC(=C(F)F)CN3C3(C(=O)Nc4c(Cl)cc(Cl)cc43)C2C(=O)N1c1cc(C(F)(F)F)cc(C(F)(F)F)c1 (stereo not shown) [Example 125] | +++ (NAUC “+++” refers to an observed NAUC >170% of positive control) | + (NAUC “+” refers to an observed NAUC <140% of positive control)
11 | O=C1C2C3CCCN3C3(C(=O)Nc4c(F)cc(Cl)cc43)C2C(=O)N1c1cc(F)cc(Cl)c1 (stereo not shown) [Example 37] | + (NAUC “+” refers to an observed NAUC <140% of positive control) | ++ (NAUC “++” refers to an observed NAUC 170-140% of positive control)
